From patent US20210261642A1, “SOLUBILITY OF GLP-1 PEPTIDE” (Novo Nordisk A/S, priority 2017, published 2021)

Assay: Assay (I): Determination of Solubility (96-well plate, pH 3.0-11.0, organic solvent 0-70% w/w, UV absorption at 280 nm)
Assay type: physicochemical
Settings: Method 1
Procedure: Assay (I): Determination of Solubility
96-Well Plate Preparation
96-well plates containing target peptide in a solid form were prepared in one of two ways:
Method 1 (evaporation): Addition of 100 μl stock solution of said peptide at a concentration of 4-6 mg/ml to each well of a 96-well half area plate (150 μl well size). Subsequently the solvent was evaporated by applying a vacuum until the solvent was completely removed.
Method 2 (precipitation): Addition of a certain volume of a stock solution of said peptide containing to each well of a 96-well half area plate followed by the addition of a certain volume of concentrated phosphoric acid to obtain a pH of 4.6 followed by addition of a certain volume of ethanol resulting in a final ethanol concentration of 20% v/v. Subsequently the plate was stored at 4° C. for 1 h and then centrifuged at 4,000 rpm for 20 min. Finally the supernatant was removed. The concentration of the stock solution was chosen in a way that the final amount of peptide after supernatant removal was >0.4 mg per well.
In both cases the stock solution was prepared by adding de-ionized water to a certain amount of powder of said peptide followed by a stepwise addition of small amounts of a concentrated sodium hydroxide solution until said peptide was completely in solution.
To determine solubility of a target peptide at different pH and organic solvent concentrations, two different buffer systems were used in independent experiments to cover the whole range from pH 3.0 to pH 11.0. Buffer system 1 covers pH 3.0-7.5 and buffer system 2 covers pH 7.5-11.0. For each buffer system 96 different solvent compositions were premixed in the following way: • 1. A low pH buffer (adjusted to either pH 3.0 or pH 7.5) and a high pH buffer (adjusted to either pH 7.5 or pH 11.0) were mixed at 8 different ratios to obtain values between pH 3.0 and pH 7.5 or pH 7.5 and pH 11.0, respectively. The total volume after mixing was 300 μl. • 2. 12 different amounts of organic solvent were then added to these buffers to obtain organic solvent (e.g. ethanol) concentrations between 0 and 70% w/w. • 3. Water was then added to obtain a total weight of 1.0 g of solvent in each well.
After preparing the 96 different solvent systems, 100 μl of each system was transferred to the 96-well plate containing the solid form of the target peptide (prepared as described in the section “96-well plate preparation”). The plate was then stored at a given temperature (between 5° C. and 70° C.) for a given time on a rotating shaker set to 400 rpm. At regular time intervals the plate was centrifuged (4,000 rpm for 10 min) and a 10 μl sample was taken from each well. The samples were then analysed by UV absorption at 280 nm for peptide quantification. Peptide concentration results are given as UV absorption at 280 nm of the sample subtracted UV absorption at 280 nm of a well comprising 10 μl water.
The buffers used were as follows: • Buffer system 1 (for the pH range from pH 3.0-7.5)
• Buffer system 2 (for the pH ranae from pH 7.5-11.0)
Solubility of liraglutide was determined using Assay (I) described herein. Liraglutide was prepared using Method 1 (evaporation) or Method 2 (precipitation) as described in subsection “96-well plate preparation”.

- Peptide concentration after 5 min (MeCN 0.0% w/w, pH 3.0, RT): 0.1 mg/mL
- Peptide concentration after 180 min (MeCN 0.0% w/w, pH 3.0, RT): 0.1 mg/mL
- Peptide concentration after 5 min (MeCN 0.0% w/w, pH 3.6, RT): 0.1 mg/mL
- Peptide concentration after 180 min (MeCN 0.0% w/w, pH 3.6, RT): 0.1 mg/mL
- Peptide concentration after 5 min (MeCN 0.0% w/w, pH 4.3, 5° C.): 0.1 mg/mL
- Peptide concentration after 180 min (MeCN 0.0% w/w, pH 4.3, 5° C.): 0.1 mg/mL
- Peptide concentration after 5 min (MeCN 0.0% w/w, pH 4.3, RT): 0.1 mg/mL
- Peptide concentration after 180 min (MeCN 0.0% w/w, pH 4.3, RT): 0.1 mg/mL
- Peptide concentration after 24 h (MeCN 0.0% w/w, pH 4.3, RT): 0.0 mg/mL
- Peptide concentration after 5 min (MeCN 0.0% w/w, pH 4.9, 5° C.): 0.2 mg/mL
- Peptide concentration after 180 min (MeCN 0.0% w/w, pH 4.9, 5° C.): 0.1 mg/mL
- Peptide concentration after 5 min (MeCN 0.0% w/w, pH 5.6, 5° C.): 0.1 mg/mL
- Peptide concentration after 180 min (MeCN 0.0% w/w, pH 5.6, 5° C.): 0.1 mg/mL
- Peptide concentration after 24 h (MeCN 0.0% w/w, pH 5.6, 5° C.): 0.1 mg/mL
- Peptide concentration after 24 h (MeCN 0.0% w/w, pH 5.6, RT): 0.0 mg/mL
- Peptide concentration after 5 min (MeCN 0.0% w/w, pH 6.2, 5° C.): 0.1 mg/mL
- Peptide concentration after 180 min (MeCN 0.0% w/w, pH 6.2, 5° C.): 0.1 mg/mL
- Peptide concentration after 5 min (MeCN 0.0% w/w, pH 6.9, 5° C.): 0.4 mg/mL
- Peptide concentration after 180 min (MeCN 0.0% w/w, pH 6.9, 5° C.): 2.0 mg/mL
- Peptide concentration after 24 h (MeCN 0.0% w/w, pH 6.9, 5° C.): >4.0 mg/mL
- Peptide concentration after 24 h (MeCN 0.0% w/w, pH 6.9, RT): >4.0 mg/mL
- Peptide concentration after 5 min (MeCN 0.0% w/w, pH 7.5, 5° C.): 0.6 mg/mL
- Peptide concentration after 180 min (MeCN 0.0% w/w, pH 7.5, 5° C.): 2.6 mg/mL
- Peptide concentration after 24 h (MeCN 0.0% w/w, pH 7.5, 5° C.): >4.0 mg/mL
- Peptide concentration after 24 h (MeCN 0.0% w/w, pH 7.5, RT): >4.0 mg/mL
- Peptide concentration after 5 min (MeCN 0.0% w/w, pH 8.0, 5° C.): 0.5 mg/mL
- Peptide concentration after 180 min (MeCN 0.0% w/w, pH 8.0, 5° C.): 2.1 mg/mL
- Peptide concentration after 24 h (MeCN 0.0% w/w, pH 8.0, 5° C.): >4.0 mg/mL
- Peptide concentration after 5 min (MeCN 0.0% w/w, pH 8.5, 5° C.): 0.3 mg/mL
- Peptide concentration after 180 min (MeCN 0.0% w/w, pH 8.5, 5° C.): 2.9 mg/mL
- Peptide concentration after 24 h (MeCN 0.0% w/w, pH 8.5, 5° C.): >4.0 mg/mL
- Peptide concentration after 5 min (MeCN 0.0% w/w, pH 9.0, 5° C.): 0.3 mg/mL
- Peptide concentration after 180 min (MeCN 0.0% w/w, pH 9.0, 5° C.): 2.8 mg/mL
- Peptide concentration after 24 h (MeCN 0.0% w/w, pH 9.0, 5° C.): >4.0 mg/mL
- Peptide concentration after 5 min (MeCN 0.0% w/w, pH 9.5, 5° C.): 0.4 mg/mL
- Peptide concentration after 180 min (MeCN 0.0% w/w, pH 9.5, 5° C.): 2.6 mg/mL
- Peptide concentration after 24 h (MeCN 0.0% w/w, pH 9.5, 5° C.): >4.0 mg/mL
- Peptide concentration after 5 min (MeCN 0.0% w/w, pH 10.0, 5° C.): 0.4 mg/mL
- Peptide concentration after 180 min (MeCN 0.0% w/w, pH 10.0, 5° C.): 3.1 mg/mL
- Peptide concentration after 24 h (MeCN 0.0% w/w, pH 10.0, 5° C.): >4.0 mg/mL
- Peptide concentration after 5 min (MeCN 0.0% w/w, pH 10.5, 5° C.): 0.5 mg/mL
- Peptide concentration after 180 min (MeCN 0.0% w/w, pH 10.5, 5° C.): 2.9 mg/mL
- Peptide concentration after 24 h (MeCN 0.0% w/w, pH 10.5, 5° C.): >4.0 mg/mL
- Peptide concentration after 5 min (MeCN 0.0% w/w, pH 11.0, 5° C.): 0.2 mg/mL
- Peptide concentration after 180 min (MeCN 0.0% w/w, pH 11.0, 5° C.): 1.6 mg/mL
- Peptide concentration after 24 h (MeCN 0.0% w/w, pH 11.0, 5° C.): >4.0 mg/mL
- Peptide concentration after 5 min (MeCN 6.4% w/w, pH 3.0, 5° C.): 0.1 mg/mL
- Peptide concentration after 180 min (MeCN 6.4% w/w, pH 3.0, 5° C.): 0.2 mg/mL
- Peptide concentration after 24 h (MeCN 6.4% w/w, pH 3.0, 5° C.): 0.3 mg/mL
- Peptide concentration after 24 h (MeCN 6.4% w/w, pH 3.0, RT): 0.1 mg/mL
- Peptide concentration after 5 min (MeCN 6.4% w/w, pH 3.6, 5° C.): 0.1 mg/mL
SMILES: CCCCCCCCCCCCCCCC(=O)N[C@@H](CCC(=O)NCCCC[C@H](NC(=O)[C@H](C)NC(=O)[C@H](C)NC(=O)[C@H](CCC(N)=O)NC(=O)CNC(=O)[C@H](CCC(=O)O)NC(=O)[C@H](CC(C)C)NC(=O)[C@H](Cc1ccc(O)cc1)NC(=O)[C@H](CO)NC(=O)[C@H](CO)NC(=O)[C@@H](NC(=O)[C@H](CC(=O)O)NC(=O)[C@H](CO)NC(=O)[C@@H](NC(=O)[C@H](Cc1ccccc1)NC(=O)[C@@H](NC(=O)CNC(=O)[C@H](CCC(=O)O)NC(=O)[C@H](C)NC(=O)[C@@H](N)Cc1cnc[nH]1)[C@@H](C)O)[C@@H](C)O)C(C)C)C(=O)N[C@@H](CCC(=O)O)C(=O)N[C@@H](Cc1ccccc1)C(=O)N[C@H](C(=O)N[C@@H](C)C(=O)N[C@@H](Cc1c[nH]c2ccccc12)C(=O)N[C@@H](CC(C)C)C(=O)N[C@H](C(=O)N[C@@H](CCCNC(=N)N)C(=O)NCC(=O)N[C@@H](CCCNC(=N)N)C(=O)NCC(=O)O)C(C)C)[C@@H](C)CC)C(=O)O [liraglutide, Arg34,Lys26-(N-epsilon-(gamma-L-glutamyl(N-alfa-hexadecanoyl)))-GLP-1(7-37)]
